Source: US20220389379A1, “PRIMARY BREAST EPITHELIAL CELL CULTURE MEDIUM, CULTURE METHOD AND USE THEREOF” (PRECEDO PHARMACEUTICALS CO., LTD, priority 2019, published 2022)
pIC50: −log10 of the molar value.

Each molecule was assayed on primary breast tumor epithelial cells isolated from breast cancer tissues (HMFL-XN1, HMFL-XN3, HMFL-XN4, HMFL-XN6, HMFL-XN8) (assay: Optimization of primary breast epithelial cell culture medium: cell count after culture with medium additives). Settings: not given.
Assay type: cell-based, human
Parameters: key: +: compared with the basis medium, the medium added with the additive(s) can promote the proliferation of primary breast tumor epithelial cells isolated from at least three cases of breast cancer tissues; −: the medium added with the additive(s) has the effect of inhibiting proliferation of primary breast tumor epithelial cells isolated from at least two cases of breast cancer tissues; ○: the medium added with this additive(s) has no significant effect on the proliferation of primary breast tumor epithelial cells isolated from at least three cases of breast cancer tissues
Experimental: Matrigel (registered trademark) (manufactured by BD Biosciences) was diluted at 1:100 in serum-free DMEM/F12 medium to prepare an extracellular matrix dilution, which was added to a 48-well culture plate with 200 μl/well to completely cover the bottom of the wells of the culture plate. The resultant was let stand for 1 hour in a 37° C. incubator. After 1 hour, the extracellular matrix dilution was removed to provide a Matrigel-coated plate.
First, a basis medium was prepared. To a commercial DMEM/F-12 medium, GlutaMAX-I (manufactured by Thermo Fisher SCIENTIFIC) was added at the specified concentration (1:100 dilution), human insulin (manufactured by Sigma) was added at a final concentration of 10 μg/ml, ROCK kinase inhibitor Y27632 (manufactured by Sigma) was added at a final concentration of 10 μM, and penicillin-streptomycin (manufactured by Thermo Fisher SCIENTIFIC) was added at a 1:100 dilution ratio, which provides the basis medium.
Next, different types of additives (as shown in Table 1) were added to the basis medium to prepare breast epithelial cell culture mediums containing different supplementary components, and the mediums with different components were added at a volume of 500 μl/well to 48-well plates which were coated with extracellular matrix gel (Matrigel). Breast tumor cells (HMFL-XN1) isolated from breast cancer tissue in step (1) of this Example were inoculated in a Matrigel-coated 48-well culture plate at a cell density of 1×10^4 cells/well, and equal numbers of freshly isolated breast tumor cells (HMFL-XN1) were cultured under different medium formulations at 37° C., under 5% CO2 concentration and 20% oxygen concentration. The medium was renewed every 4 days after the start of the culture. After 10 days of culture, cell counts were performed. As an experiment control, the basis medium without any additives was used. Breast tumor cells isolated from the remaining four breast cancer tissue samples were cultured and counted in the same manner as above.

Question: Cholera toxin was tested. Which Degree of cell did it give?
Answer: The Degree of cell was “○”.

Same assay, conditions: additive at the concentration given in Table 1 added to basis medium; cell count after 10 days of culture, compared with basis medium; five breast cancer samples

Question: `Cc1cccc(-c2nn(C(=S)Nc3ccccc3)cc2-c2ccnc3ccccc23)n1` [A8301, reference compound] was tested. Which Degree of cell did it give?
Answer: Its Degree of cell is “+”.

Question: Which Degree of cell does the source give for `Cc1ccc2c(c1)C(=O)C1(O)CCN(c3ccccc3)C1=N2` (centres unmarked) [Blebbistatin, reference compound] here?
Answer: Its Degree of cell is “−”.

Question: With `CC(=O)N[C@@H](CS)C(=O)O` [N-Acetyl Cysteine, reference compound] as the molecule, how does the Degree of cell read?
Answer: The Degree of cell was “−”.

Question: For `NC(=O)c1cccnc1` [Nicotinamide, reference compound], which Degree of cell is on record?
Answer: Its Degree of cell is “−”.

Question: Which Degree of cell does the source give for `CCCCC[C@H](O)/C=C/[C@H]1[C@H](O)CC(=O)[C@@H]1C/C=C\CCCC(=O)O` [Prostaglandin E2, reference compound] here?
Answer: The Degree of cell was “−”.

Question: For `Oc1ccc(-c2nc(-c3ccncc3)c(-c3ccc(F)cc3)[nH]2)cc1` [SB202190, reference compound], which Degree of cell is on record?
Answer: The Degree of cell was “+”.

Question: How did the Degree of cell turn out when `N[C@@H](Cc1cc(I)c(Oc2ccc(O)c(I)c2)c(I)c1)C(=O)O` [Triiodothyronine, reference compound] was run?
Answer: The Degree of cell was “○”.

Question: “Basic fibroblast growth factor: medium additive (R&D)” was tested. Which Degree of cell did it give?
Answer: Its Degree of cell is “+”.

Question: For “Epidermal growth factor: epidermal growth factor (EGF), medium additive (NSDSECPLSHDGYCLHDGVCMYIEALDKYACNCVVGYIGERCQYRDLKWWELR; UniProt P01133 971-1023, looked up)”, which Degree of cell is on record?
Answer: Its Degree of cell is “+”.

Question: “Hepatocyte growth factor: medium additive (Peprotech)” was tested. Which Degree of cell did it give?
Answer: Its Degree of cell is “+”.

Question: For “Human leukemia inhibitory factor: medium additive (Peprotech)”, which Degree of cell is on record?
Answer: The Degree of cell was “−”.

Question: With “Insulin growth factor1: medium additive (Peprotech)” as the molecule, how does the Degree of cell read?
Answer: Its Degree of cell is “+”.

Question: Interleukin 6: medium additive (R&D) was tested. Which Degree of cell did it give?
Answer: Its Degree of cell is “−”.

Question: For Neuregulin 1, which Degree of cell is on record?
Answer: Its Degree of cell is “+”.

Each molecule was assayed on breast tumor cells (HMFL-XN12) (assay: Drug sensitivity functional test, Cell Titer-Glo cell viability). Settings: Homo sapiens; HMFL-XN12, HER2-positive patient; 72 hours after administration; read-out: half-inhibitory amount (IC50).
Assay type: cell-based
Experimental: (§1) 1. Plating of primary breast tumor cells: the single cell suspension of breast tumor cells (HMFL-XN5, HMFL-XN7, HMFL-XN10, HMFL-XN12, and HMFL-XN29) obtained by the same method of the invention according to step (3) of Example 4, was inoculated at a density of 3000-5000 cells/well in a 384-well plate, and the cells were adhered overnight.
(§2) (1) The drug storage plates were prepared by gradient dilution method: 10 μL of the drug stock solutions to be tested (the concentration of the drug stock solution was determined based on 2 times of the maximum blood concentration Cmax of the drug in the human body) were respectively taken, and added to 0.5 mL EP tubes containing 20 μL of DMSO; 10 μL of solutions from the above EP tubes were pipetted into second 0.5 mL EP tubes loaded with 20 μL of DMSO, that is, diluting the drugs in a ratio of 1:3. The above method was repeated for gradually dilution and 7 concentrations required for dosing were obtained. Different concentrations of drugs were added to the 384-well drug storage plates. Equal volume of DMSO was added to each well of the solvent control group as a control. In this example, the drugs to be tested were epirubicin (manufactured by MCE), lapatinib (manufactured by MCE), docetaxel (manufactured by MCE), and tamoxifen (manufactured by MCE).
(§3) (2) Using a high-throughput automated workstation (purchased from Perkin Elmer), different concentrations of drugs and solvent controls in the 384-well drug storage plates were added to 384-well cell culture plates plated with the breast tumor cells. […]
(§4) (3) Test of cell viability: 72 hours after administration, Cell Titer-Glo assay kit (manufactured by Promega) was used to detect the chemiluminescence value of the cultured cells after drug administration. […] The prepared Cell Titer-Glo detection solution was added to each well, and a microplate reader was used to detect the chemiluminescence value after mixing.
(§5) Graphs were made by using Graphpad Prism 7.0 software and the half-inhibition rate IC50 was calculated.

Question: How did the pIC50 turn out when `CS(=O)(=O)CCNCc1ccc(-c2ccc3ncnc(Nc4ccc(OCc5cccc(F)c5)c(Cl)c4)c3c2)o1` [lapatinib] was run?
Answer: The pIC50 was 6.04.

The molecules below were run on breast tumor cells (HMFL-XN7) in the same assay as above. Settings: Homo sapiens; HMFL-XN7, hormone receptor-positive, HER2 receptor-negative patient; 72 hours after administration; read-out: half-inhibition rate IC50.
Assay type: cell-based
Experimental: as §1, §2, §3, §4, §5

Question: `CS(=O)(=O)CCNCc1ccc(-c2ccc3ncnc(Nc4ccc(OCc5cccc(F)c5)c(Cl)c4)c3c2)o1` [lapatinib] was tested. Which pIC50 did it give?
Answer: Its pIC50 is 5.60.

Question: With `CC/C(=C(\c1ccccc1)c1ccc(OCCN(C)C)cc1)c1ccccc1` [tamoxifen] as the molecule, how does the pIC50 read?
Answer: Its pIC50 is 6.01.

These molecules were tested on breast tumor cells (HMFL-XN29) in the same assay as above. Settings: HMFL-XN29, triple-negative patient; 72 hours after administration.
Assay type: cell-based, human
Experimental: as §1
(1) The drug storage plates were prepared by gradient dilution method: 10 μL of the drug stock solutions to be tested (the concentration of the drug stock solution was determined based on 2 times of the maximum blood concentration Cmax of the drug in the human body) were respectively taken, and added to 0.5 mL EP tubes containing 20 μL of DMSO; 10 μL of solutions from the above EP tubes were pipetted into second 0.5 mL EP tubes loaded with 20 μL of DMSO, that is, diluting the drugs in a ratio of 1:3. […]
as §4, §5

Question: With `CS(=O)(=O)CCNCc1ccc(-c2ccc3ncnc(Nc4ccc(OCc5cccc(F)c5)c(Cl)c4)c3c2)o1` [lapatinib] as the molecule, how does the “drug sensitivity compared with breast tumor cells from other patients” value read?
Answer: The value was “less sensitive”.

Question: For `CC/C(=C(\c1ccccc1)c1ccc(OCCN(C)C)cc1)c1ccccc1` [tamoxifen], which “drug sensitivity compared with breast tumor cells from other patients” value is on record?
Answer: The value was “less sensitive”.
